Experimental findings from patent US11639503B2, “Anti-chymase aptamer and use for same” (RIBOMIC INC., priority 2017, dated 2023) are described below.

Oligonucleotides are written 5' to 3', each unit as a sugar letter and its base; * is a phosphorothioate linkage, no mark a phosphodiester; rarer units and linkages stand in square brackets, end groups in braces. Plain capitals give the bases only. r = 2'-OH (RNA); f = 2'-fluoro

B1: 6 (nucleic acid)
chain: rGrGrGrArGfCrArGrGrArGrArGrArGrGfUfCrArGrAfUrGfUfCrAfUrGrAfCfUfUrAfUrArGrGfUrArAfCfCrGrAfUrArAfUrGrGrGrGrGfCfCfUrAfUrGfCrGfUrGfCfUrArGfUrGfUrGrA
modifications: aptamer
B2: 1 (nucleic acid)
chain: rGrGrGrArGfCrArGrGrArGrArGrArGrGfUfCrArGrAfUrGrArGfCrAfUrGfCfUfUfUfUfUrGrGfUrArAfCfCrGrAfUrArAfUrGrGrGrGrGfCfCfUrAfUrGfCrGfUrGfCfUrArGfUrGfUrGrA
modifications: aptamer
B3: 7 (nucleic acid)
chain: rGrGrGrArGfCrArGrGrArGrArGrArGrGfUfCrArGrAfUrGfUfUfUrGrGfUrArGfUrArAfCfUrGrGrArAfUrArGrGrGrGfCfUrAfCrArGrGfCfCfUrAfUrGfCrGfUrGfCfUrArGfUrGfUrGrA
modifications: aptamer
B4: 3 (nucleic acid)
chain: rGrGrGrArGfCrArGrGrArGrArGrArGrGfUfCrArGrAfUrGrAfUrArAfCfCrArGfUfUrGrGrGrGrGrGfUfCrArAfUfUrAfCrAfUrGrGrGrAfCfCfUrAfUrGfCrGfUrGfCfUrArGfUrGfUrGrA
modifications: aptamer
B5: 8 (nucleic acid)
chain: rGrGrGrArGfCrArGrGrArGrArGrArGrGfUfCrArGrAfUrGrAfUfUrGrAfCrGrAfCfUrAfUrArGrGfUrArAfCfCfUfUfUrAfCrGrGrGrGrGfCfCfUrAfUrGfCrGfUrGfCfUrArGfUrGfUrGrA
modifications: aptamer
B6: 5 (nucleic acid)
chain: rGrGrGrArGfCrArGrGrArGrArGrArGrGfUfCrArGrAfUrGrAfUrGrAfCfCrGrAfUfUrAfUrArGrGfUrArAfCfCrAfCfUfUrArGrGrGrGrGfCfCfUrAfUrGfCrGfUrGfCfUrArGfUrGfUrGrA
modifications: aptamer
B7: 4 (nucleic acid)
chain: rGrGrGrArGfCrArGrGrArGrArGrArGrGfUfCrArGrAfUrGfUrArAfCfUfCfUrAfUfUrGrArGrGrGrGfCrAfUfCrArGfCrAfCrArGfUrArGfCfCfUrAfUrGfCrGfUrGfCfUrArGfUrGfUrGrA
modifications: aptamer

One series concerns the target T1, chymase (recombinant, manufactured by SIGMA) (Homo sapiens, UniProt P23946).
T1 construct: purchased SIGMA
T1 sequence (P23946 22-247): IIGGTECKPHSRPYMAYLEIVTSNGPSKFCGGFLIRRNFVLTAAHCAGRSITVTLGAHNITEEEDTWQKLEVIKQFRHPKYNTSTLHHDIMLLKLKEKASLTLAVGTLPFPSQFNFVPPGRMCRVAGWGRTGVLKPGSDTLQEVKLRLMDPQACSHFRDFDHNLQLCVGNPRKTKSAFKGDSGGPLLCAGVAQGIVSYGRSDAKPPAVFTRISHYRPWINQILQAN
The series is described as follows: chymase enzyme activity inhibition, synthetic substrate Suc-Ala-Ala-Pro-Phe-MCA. It is filed as biochemical. The conditions noted are these: Table 1; substrate Suc-Ala-Ala-Pro-Phe-MCA 100 μM, chymase 0.05 μg (16.7 nM), 37° C.; mean of 2 or 3 measurements. As for the experimental part:
A first method employs a synthetic substrate. A useful chymase substrate is Suc-Ala-Ala-Pro-Phe-MCA (4-methylcoumaryl-7-amide group) (manufactured by Peptide Institute, Inc.), which contains the 4-amino acid peptide “Ala-Ala-Pro-Phe” (SEQ ID NO: 41), a standard substrate for chymotrypsin-like proteases.
The assay is performed using a 96-well plate (F16 Black Maxisorp Fluoronunc, manufactured by Nunc), with a reaction mixture volume of 100 μL, in a buffer solution (solution C; see Example 2 below). First, each nucleic acid is prepared in solution C to obtain 50 μL solutions. After 10 μL of the 1 mM substrate prepared in solution C is added, the plate is set to the microplate reader SpectraMax190 (manufactured by Molecular Devices Corporation), and incubated at 37° C. for 5 minutes. Separately, 0.05 μg of chymase (recombinant, manufactured by SIGMA) is diluted in solution C, and 40 μL of this dilution is incubated at 37° C. for 5 minutes. The chymase solution is added to the mixture of the nucleic acid and substrate to initiate an enzyme reaction. The plate containing the reaction mixture is set to the microplate reader SpectraMax190 (manufactured by Molecular Devices Corporation), and examined for time-dependent changes in the fluorescence intensity at 37° C. for 5 minutes (excitation wavelength 380 nm, detection wavelength 460 nm). A linear approximation of the increase in the fluorescence of the AMC (7-amino-4-methylcoumarine) released from the substrate by chymase activity is generated, and its slope is taken as the initial reaction velocity. For control, samples are treated and analyzed in the same manner in two cases: use of a nucleic acid pool containing a random sequence of 30 or 40 nucleotides (negative control), and use of chymostatin, a known chymotrypsin-like serine protease inhibitor (positive control). Taking the initial reaction velocity without the nucleic acid and inhibitor as a 100% enzyme activity, the inhibitory rate for each test substance is calculated, and the inhibitor concentration required to cause a 50% inhibition of the enzyme activity (IC50) is determined.
Whether the nucleic acids shown by SEQ ID NO: 1-8 inhibit the enzyme activity of chymase was determined as described below. The chymase substrate used was Suc-Ala-Ala-Pro-Phe-MCA (manufactured by Peptide Institute, Inc.), which contains the 4-amino-acid peptide Ala-Ala-Pro-Phe, a standard substrate for chymotrypsin-like proteases. Here, Suc is a protecting succinyl group, and MCA is a 4-methylcoumaryl-7-amide group; upon cleavage of the C-terminal side of phenylalanine, AMC (7-amino-4-methylcoumarine) is released. By detecting the fluorescence of this AMC, the enzyme activity of chymase can be determined. The assay was performed using a 96-well plate (F16 Black Maxisorp Fluoronunc, manufactured by Nunc), with a reaction mixture volume of 100 μL, in solution C as a buffer solution. Here, the solution C is a mixed solution of 145 mM sodium chloride, 5.4 mM potassium chloride, 1.8 mM calcium chloride, 0.8 mM magnesium chloride, 20 mM Tris (pH 7.6), and 0.05% Tween20. First, nucleic acid was serially diluted in solution C to obtain 50 μL solutions. After 10 μL of the 1 mM substrate prepared in solution C was added thereto, the plate was set to the microplate reader SpectraMax190 (manufactured by Molecular Devices Corporation), and incubated at 37° C. for 5 minutes. […] The chymase solution was added to the mixture of the nucleic acid and substrate to initiate an enzyme reaction. The final chymase concentration in the reaction mixture was 16.7 nM, the final substrate concentration being 100 μM. The plate containing the reaction mixture was set to the microplate reader SpectraMax190 (manufactured by Molecular Devices Corporation), and examined for time-dependent changes in the fluorescence intensity at 37° C. for 5 minutes (or 30 minutes) (excitation wavelength 380 nm, detection wavelength 460 nm). […]
`CC(C)C[C@H](NC(=O)[C@@H](NC(=O)N[C@@H](Cc1ccccc1)C(=O)O)[C@@H]1CCN=C(N)N1)C(=O)N[C@H](C=O)Cc1ccccc1` [chymostatin, reference compound]: the IC50 lay in the range of 100 to 200 nM.

As for B1, the IC50 stood at 5.5 nM.

In the case of B2, the IC50 was determined as 41 nM.

For B3, the IC50 stood at 52 nM.

Take B4: the IC50 came to 26 nM.

Take B5: the IC50 was 35 nM.

In the case of B6, the IC50 came to 7 nM.

Consider B7, for which the concentration for half-maximal inhibition (IC50) stood at 10.8 nM.

The series is the same for the next values; noted with them: Table 5; MCA substrate, amount of chymase 0.005 μg instead of 0.05 μg; one measurement.
Take “21 (GGCAGAUGAUCGGACAUAACAGGUUAGAUAGAGUUAAAAACCUGGGGUGUCAA; 2'-fluoro at CU, RNA at AG, backbone not given here) [compound 21]”: the IC50 is 5.7 nM.

Consider “22 (GGCAGAUGAUCGGACAUAACAGUUAGAUAGAGUUAAAAACUGGGGUGUCAA; 2'-fluoro at CU, RNA at AG, backbone not given here) [compound 22]”, for which the IC50 turned out to be 5 nM.

In the case of “23 (GGCAGAUGAUCGGACAUAACAGUAGAUAGAGUUAAAACUGGGGUGUCAA; 2'-fluoro at CU, RNA at AG, backbone not given here) [compound 23]”, the 50% inhibitory concentration (IC50) worked out at 7.8 nM.

“24 (GGCAGAUGAUCGGACAUAACAUAGAUAGAGUUAAAAUGGGGUGUCAA; 2'-fluoro at CU, RNA at AG, backbone not given here) [compound 24]”: the half-inhibitory concentration (IC50) came to 3.7 nM.

Regarding “25 (GGCAGAUGAUCGGACAUAACAAGAUAGAGUUAAAUGGGGUGUCAA; 2'-fluoro at CU, RNA at AG, backbone not given here) [compound 25]”, the IC50 amounted to 5.8 nM.

The next series has as its target T2, chymase purified from human skin mast cell (native, Calbiochem) (Homo sapiens, UniProt P23946).
T2 construct: Here, the native is chymase purified from human skin mast cell; purchased Calbiochem; host or cells: human skin mast cell (tissue-derived)
T2 sequence (P23946 22-247): T1 sequence (P23946 22-247)
The series is described as follows: chymase enzyme activity inhibition, native substrate angiotensin I (His-Leu fluorescence). It is filed as biochemical. Conditions: Table 2; substrate angiotensin I 50 μM, chymase 0.5 nM, 37° C. 90 min; mean of 2 or 3 measurements. As for the experimental part: A second method of evaluation employs a native substrate. A useful native substrate for chymase is angiotensin I. Here, His-Leu, a peptide fragment released upon degradation of angiotensin I, is fluorescently derivatized, and the fluorescence intensity therefrom is quantified.
In the assay, an enzyme reaction is carried out in 50 μL of solution C. First, 0.3-0.75 ng of chymase (recombinant, manufactured by SIGMA; or native, manufactured by Calbiochem) is diluted in solution C to obtain 5 μL chymase solution. Each nucleic acid is prepared in solution C to obtain 25 μL solutions. 5 μL of each chymase dilution and 25 μL of each nucleic acid solution are mixed, and then the mixture is incubated at 37° C. for 5 minutes. Separately, 20 μL of 125 μM angiotensin I (manufactured by Peptide Institute, Inc.) is prepared in solution C and incubated at 37° C. for 5 minutes. The angiotensin I solution is added to the mixture of chymase and nucleic acid, and the enzyme reaction is initiated. After the reaction was allowed to proceed at 37° C. for 90 minutes, 25 μL of ice-cooled 30% trichloroacetic acid solution is added to terminate the reaction. The entire mixture is centrifuged at 4° C., 14000 rpm for 10 minutes, and 30 μL of the resulting supernatant is used for the subsequent reaction for fluorescent derivatization.
After 30 μL of the supernatant is added to a 96-well plate (Black, manufactured by Costar), 15 μL of 2% o-phthalaldehyde (manufactured by SIGMA) solution in methanol and 170 μL of 0.3M NaOH solution are mixed in each well, and the plate is allowed to stand at room temperature for 10 minutes. Subsequently, 25 μL of 3M HCl solution is added to terminate the reaction. The plate is set to the microplate reader SpectraMax190 (manufactured by Molecular Devices Corporation), and the fluorescence intensity is determined at an excitation wavelength of 355 nm and a fluorescence wavelength of 460 nm.
For control, samples are treated and analyzed in the same manner in two cases: use of SEQ ID NO: 58 (negative control) and use of chymostatin, a known chymotrypsin-like serine protease inhibitor (positive control). In both cases, fluorescence intensity obtained at 0 minute reaction time serves as a blank determination. Taking the fluorescence intensity detected with the addition of an equal volume of solution C, in place of each nucleic acid, in the chymase enzyme reaction as 100%, the inhibitory rate for each test substance is calculated, and the inhibitor concentration required to cause a 50% inhibition of the enzyme activity (IC50) is determined.
Whether the nucleic acids shown by SEQ ID NO: 9 and 10 inhibit the enzyme activity of chymase was determined by the following method. Angiotensin I is converted by chymase to angiotensin II, during which a peptide fragment His-Leu is released. Since the peptide His-Leu is fluorescently derivatized by o-phthalaldehyde, its fluorescence intensity can be quantitatively measured.
The total volume of solution for an enzyme reaction in the assay was set to 50 μL, and the reaction was performed in solution C buffer. At first, native (manufactured by Calbiochem) was diluted with solution C to give 5 μL thereof. Here, the native is chymase purified from human skin mast cell. The nucleic acid was serially diluted with solution C at a concentration of 0.0027-2 μM to give 25 μL thereof. The chymase solution (5 μL) and the nucleic acid solution (25 μL) were mixed, and the mixture was incubated at 37° C. for 5 min. On the other hand, […] angiotensin I (manufactured by PEPTIDE INSTITUTE, INC.) was prepared in solution C to give 20 μL thereof, which was incubated at 37° C. for 5 min. The angiotensin I solution was added to a mixture of chymase and nucleic acid to start an enzyme reaction. The final chymase concentration of the reaction solution was 0.5 nM, and the final substrate concentration was 50 μM. […]
On to `CC(C)C[C@H](NC(=O)[C@@H](NC(=O)N[C@@H](Cc1ccccc1)C(=O)O)[C@@H]1CCN=C(N)N1)C(=O)N[C@H](C=O)Cc1ccccc1` [chymostatin, reference compound], for which the IC50 was in the range of 350 to 500 nM.

Broadly, the IC50 is the concentration at which inhibition is half-maximal.
